Experimental data from EP2785358B1, “INSULIN-MIMETICS AS THERAPEUTIC ADJUNCTS FOR BONE REGENERATION” (priority 2011, dated 2013).

What was measured:
[1] = tested on: posterolateral lumbar fusion (L4-L5); assay: Spinal fusion: manual palpation; settings: n=10, eight weeks
[2] = tested on: posterolateral lumbar fusion (L4-L5); assay: Spinal fusion: radiographic analysis; settings: n=10, eight weeks
[3] = tested on: posterolateral lumbar fusion (L4-L5); assay: Spinal fusion: MicroCT bone volume; settings: L4/L5 transverse processes and fusion mass, eight weeks
[4] = Zn-high pellet 1.0 mg/kg, listed as zinc
[5] = Zn-low pellet 0.5 mg/kg, listed as zinc

[Zn] [Zn]
Manual palpation: number graded A = fused ([1]; Zn-high pellet 1.0 mg/kg): 4 | Manual palpation: number graded B = partially fused ([1]; Zn-high pellet 1.0 mg/kg): 1 | Manual palpation: number graded C = not fused ([1]; Zn-high pellet 1.0 mg/kg): 5 | Manual palpation: number graded A = fused [1, 4]: 4/10 | Manual palpation: number graded B = partially fused [1, 4]: 1/10 | Manual palpation: number graded C = not fused [1, 4]: 5/10 | Manual palpation: number graded A = fused ([1]; Zn-low pellet 0.5 mg/kg): 3 | Manual palpation: number graded B = partially fused ([1]; Zn-low pellet 0.5 mg/kg): 4 | Manual palpation: number graded C = not fused ([1]; Zn-low pellet 0.5 mg/kg): 3 | Manual palpation: number graded A = fused [1, 5]: 3/10 | Manual palpation: number graded B = partially fused [1, 5]: 4/10 | Manual palpation: number graded C = not fused [1, 5]: 3/10 | Radiographs: number graded A = solid fusion mass bilaterally ([2]; Zn-high pellet 1.0 mg/kg): 7 | Radiographs: number graded B = unilateral fusion mass ([2]; Zn-high pellet 1.0 mg/kg): 3 | Radiographs: number graded C = small fusion mass bilaterally ([2]; Zn-high pellet 1.0 mg/kg): 0 | Radiographs: number graded D = Graft resorption ([2]; Zn-high pellet 1.0 mg/kg): 0 | Radiographs: number graded A = solid fusion mass bilaterally [2, 4]: 7/10 | Radiographs: number graded B = unilateral fusion mass [2, 4]: 3/10 | Radiographs: number graded C = small fusion mass bilaterally [2, 4]: 0/10 | Radiographs: number graded D = Graft resorption [2, 4]: 0/10 | Radiographs: number graded A = solid fusion mass bilaterally ([2]; Zn-low pellet 0.5 mg/kg): 7 | Radiographs: number graded B = unilateral fusion mass ([2]; Zn-low pellet 0.5 mg/kg): 1 | Radiographs: number graded C = small fusion mass bilaterally ([2]; Zn-low pellet 0.5 mg/kg): 2 | Radiographs: number graded D = Graft resorption ([2]; Zn-low pellet 0.5 mg/kg): 0 | Radiographs: number graded A = solid fusion mass bilaterally [2, 5]: 7/10 | Radiographs: number graded B = unilateral fusion mass [2, 5]: 1/10 | Radiographs: number graded C = small fusion mass bilaterally [2, 5]: 2/10 | Radiographs: number graded D = Graft resorption [2, 5]: 0/10 | Mean Bone Volume ([3]; Zn high dose pellet (1.0 mg/kg)): 172.7 mm^3 | Mean Bone Volume ([3]; Zn low dose pellet (0.5 mg/kg)): 172.9 mm^3
